Test results from US9493727B2 (priority 2010, dated 2016).
“And” between values parts separate entries of the source, which are not always exact repeats. Equal entries are not always repeated.

How the values were obtained:
[1] = type: physicochemical

Row | Compound | % Separation 1 h (C = cream) [1] | % Separation 24 h (C = cream) ([1]; 24 h) | Adjuvant 1 h, emulsion stability, mL separation | Anionic 1 h, emulsion stability, mL separation | Adjuvant 24 h, emulsion stability, mL separation | Anionic 24 h, emulsion stability, mL separation | % Separation 24 h (O = oil separated) ([1]; 24 h) | Nonionic 1 h, emulsion stability, mL separation | Nonionic 24 h, emulsion stability, mL separation
1 | CCCC(CCCCCCCC(=O)NCCCN(C)C)S(=O)(=O)[O-].[Na+] (centres unmarked) [Sample C12-42, C12 DMAPA Sulfonate] | 3 C % | 3.1 C % and 3.3 C % | – | – | – | – | – | – | –
2 | CN(C)CCCNC(=O)CCCCCCCCC(CCCCCCCC(=O)NCCCN(C)C)S(=O)(=O)[O-].[Na+] (centres unmarked) [Sample C18-68, C18 diDMAPA Amide Sulfonate] | – | – | 0 mL | 0 mL | 0 mL | 0 mL | – | – | –
3 | C[N+](C)([O-])CCCNC(=O)CCCCCCCCC(CCCCCCCC(=O)NCCC[N+](C)(C)[O-])S(=O)(=O)[O-].[Na+] (centres unmarked) [Sample C18-30, C18 DiDMAPA DiAO Sulfonate] | 3.9 C % and 3.1 C % | 3.5 C, 0.5 O % and 3.6 C % | 0 mL | 0 mL | 0 mL | 0 mL | 3.5 C, 0.5 O % | – | –
4 | C=CCCCCCCCC(=O)NCCC[N+](C)(C)[O-] [Sample C10-20, C10 DMAPA AO] | – | – | 0 mL | 0 mL | 0 mL | 0 mL | – | 1 mL | 1 mL
5 | CCCCCCCC(CCCCCCCC(=O)NCCCN(C)C)S(=O)(=O)[O-].[Na+] (centres unmarked) [Sample C16-11, C16-DMAPA Sulfonate] | 3.1 C % and 2.8 C % | 4 C % and 3.6 C % | – | – | – | – | – | – | –
6 | C16 DMAPA Sulfonate AO [Sample C16-12] | – | – | 0 mL | 0 mL | 0 mL | 0 mL | – | 0.4 mL | 0.5 mL
7 | CN(C)CCCNC(=O)CCCCCCC/C=C/CCCCCCCC(=O)NCCCN(C)C [Mix-26, C18 DiDMAPA Amide] | – | – | – | 0 mL | – | 0 mL | – | – | –
8 | C[N+](C)([O-])CCCNC(=O)CCCCCCC/C=C/CCCCCCCC(=O)NCCC[N+](C)(C)[O-] [Mix-29, C18 DiDMAPA DiAO] | – | – | 0 mL | 0 mL | 0 mL | 0 mL | – | 0 mL | –
9 | CCCC(CCCCCCCC(=O)NCCC[N+](C)(C)[O-])S(=O)(=O)[O-].[Na+] (centres unmarked) [Sample C12-21, C12 DMAPA AO Sulfonate] | – | – | 0 mL | 0 mL | 0 mL | 0 mL | – | – | –
